Publication PMC9221509, “Discovery of a Novel Antimicrobial Peptide, Temporin-PKE, from the Skin Secretion of Pelophylax kl. esculentus, and Evaluation of Its Structure-Activity Relationships” (Biomolecules, 2022)
≈ marks a conversion by molar mass, not a printed value. Like-named read-outs stand apart in the source and are kept apart here. Non-standard residues stand in square brackets, D forms with d. Residues, ends and D or L forms follow the SMILES beside them. No end group written: not given here.

Key:
E. coli (ATCC CRM 8739) = test: microbe, parasite or virus in culture; type: cell-based, Escherichia coli; settings: for MBC: ATCC CRM 8739, 18 h; for MIC: ATCC CRM 8739, 24 h
Experimental: (§1) The antimicrobial activities of peptides were evaluated against the Gram-positive bacteria, S. aureus (ATCC 6538), methicillin-resistant Staphylococcus aureus (MRSA) (NCTC 12493), Enterococcus faecalis (E. faecalis) (NCTC 12697); the Gram-negative bacteria, E. coli (ATCC CRM 8739), Klebsiella pneumoniae (K. pneumoniae) (ATCC 43816), Pseudomonas aeruginosa (P. aeruginosa) (ATCC CRM 9027); and the yeast, Candida albicans (C. albicans) (ATCC CRM 10231). Clinical isolates of MRSA (B042 V2E1 A), E. coli (ATCC BAA-2340), K. pneumoniae (ATCC BAA-1705), and P. aeruginosa (B004 V2S2 B) were also used to determine their antimicrobial activities. The suspension of microorganisms in the logarithmic growth phase with a specific final density (Gram-negative and Gram-positive bacteria: 5 × 10^5 CFU/mL; yeast: 1 × 10^6 CFU/mL) was incubated with different peptide concentrations from 1 µM to 512 µM at 37 °C for 24 h. PBS was used as the negative control, and norfloxacin and amphotericin B were selected as the positive control for bacteria and yeast, respectively. Since the Norfloxacin had weak activities against P. aeruginosa (B004 V2S2 B) and K. pneumoniae (ATCC BAA 1705), gentamicin was used as the positive control for these two bacterial strains. The absorbance of each well was obtained using a microplate reader (EL808, Biolise BioTek, Winooski, VT, USA) set at 550 nm wavelength. The MIC value was the lowest concentration of a peptide that inhibits visible bacterial growth. Once the MIC values were determined, an aliquot from the bacterial culture exposed to the peptide at or above its MIC value was inoculated on a Mueller Hinton agar (MHA) and was incubated at 37 for 18 h. The MBC value was the lowest concentration of a peptide that kills 99.9% of bacteria.

E. coli (ATCC BAA-2340) = test: microbe, parasite or virus in culture; type: cell-based, Escherichia coli; settings: for MBC: ATCC BAA-2340, 18 h; for MIC: ATCC BAA-2340, 24 h
Experimental: as §1

[1] = system: K. pneumoniae (ATCC 43816); type: cell-based, Klebsiella pneumoniae; settings: ATCC 43816, 24 h
Experimental: as §1
According to the procedures in a previous article, the analysis of the sensitivity of the peptides was determined by measuring MIC values in the presence of different types of salts and 10% fetal bovine serum. MRSA (NCTC 12493) and K. pneumoniae (ATCC 43816) were selected as the subjects of these assays. Various salts at different concentrations, including 150 mM NaCl, 4.5 mM KCl, 6 μM NH4Cl, 1 mM MgCl2, […], […], and 10% serum (Gibco, Auckland, New Zealand), were added to the MHB medium for the examination of the MIC values which were determined as described in Section 2.7.

[2] = system: P. aeruginosa (ATCC CRM 9027) biofilm; type: cell-based, Pseudomonas aeruginosa; settings: ATCC CRM 9027, 24 h
Experimental: (§2) The anti-biofilm activities of the peptides against S. aureus (ATCC 6538), MRSA (NCTC 12493), E. faecalis (NCTC 12697), E. coli (ATCC CRM 8739), K. pneumoniae (ATCC 43816), and P. aeruginosa (ATCC CRM 9027), were evaluated. For the MBIC assay, 99 µL of bacterial suspension (5 × 10^5 CFU/mL) was mixed with 1 µL of serial dilutions (from 100 µM to 51,200 µM) of temporin-PKE and its analogues in a 96-well plate, and the plate was incubated in a moist shaking incubator at a speed of 200 rpm at 37 °C for 24 h. For the MBEC assay, 100 µL of bacterial suspension (5 × 10^5 CFU/mL) in each well was seeded in a new 96-well plate, and the plate was put into the same shaking incubator for 24 h incubation to allow biofilm formation on the well. After biofilm formation, the biofilm in the plate was washed with PBS twice. The PBS was aspirated between washes to remove planktonic bacterial cells. The washed biofilm in each well was treated with 100 µL of serial dilutions (from 1 µM to 512 µM) of the test peptides. Then, the plate was incubated in the same shaking incubator for another 24 h. After being washed by PBS twice and fixed with methanol, the biofilm in each well was incubated with 100 µL of 0.1% crystal violet for 30 min, and the stained biofilm was dissolved in 100 µL of glacial acidic acid after drying. The solutions were transferred to a new microplate, and the absorbance of each well was measured using a microplate reader (EL808, Biolise BioTek, Winooski, VT, USA) set to 595 nm wavelength. The MBIC was the minimum concentration of the peptide showing no biofilm formation. The MBEC is the lowest concentration of the peptide capable of eradicating the mature biofilms, which had no biofilm in the well.

[3] = system: MRSA (NCTC 12493) biofilm; type: cell-based, methicillin-resistant Staphylococcus aureus; settings: NCTC 12493, 24 h
Experimental: as §2

MRSA (NCTC 12493) = test: microbe, parasite or virus in culture; type: cell-based, methicillin-resistant Staphylococcus aureus; settings: for MBC: NCTC 12493, 18 h; for MIC: NCTC 12493, 24 h
Experimental: as §1

MRSA (B042 V2E1 A) = test: microbe, parasite or virus in culture; type: cell-based, methicillin-resistant Staphylococcus aureus; settings: B042 V2E1 A; for MBC: 18 h; for MIC: 24 h
Experimental: as §1

[4] = system: C. albicans (ATCC CRM 10231); test: organism not typed; type: cell-based, Candida albicans; settings: for MBC: ATCC CRM 10231, 18 h; for MIC: ATCC CRM 10231, 24 h
Experimental: as §1

[5] = system: K. pneumoniae (ATCC 43816) biofilm; type: cell-based, Klebsiella pneumoniae; settings: ATCC 43816, 24 h
Experimental: as §2

Row | Compound | MBC (E. coli (ATCC BAA-2340); read-out: MBC) | MIC against K. pneumoniae in the presence of 4 µM FeCl3 [1] | MIC against K. pneumoniae in the presence of 6 µM NH4Cl [1] | MIC against K. pneumoniae in the presence of 8 µM ZnCl2 [1] | MIC against K. pneumoniae in the presence of 1 mM MgCl2 [1] | MIC against K. pneumoniae in the presence of 2 mM CaCl2 [1] | MIC against K. pneumoniae in the presence of 4.5 mM KCl [1] | MIC against K. pneumoniae in the presence of 150 mM NaCl [1] | MIC against K. pneumoniae in the presence of 10% FBS [1] | MIC against K. pneumoniae, Negative [1] | MBIC [2] | MBIC [3] | MBC (MRSA (NCTC 12493)) | MIC (MRSA (NCTC 12493)) | MBC (MRSA (B042 V2E1 A)) | MIC (MRSA (B042 V2E1 A)) | MBC ([4]; read-out: MBC) | MBIC [5] | MBC (E. coli (ATCC CRM 8739)) | MIC (E. coli (ATCC CRM 8739)) | other results
1 | CC[C@@H](C)[C@@H](NC(=O)[C@H](CCCCN)NC(=O)[C@@H]1CCCN1C(=O)[C@H](CC(C)C)NC(=O)[C@H](CC(C)C)NC(=O)[C@H](CO)NC(=O)[C@H](CO)NC(=O)[C@H](CC(C)C)NC(=O)[C@H](C)NC(=O)CNC(=O)[C@H](NC(=O)[C@H](NC(=O)[C@H](CC(C)C)NC(=O)[C@@H]1CCCN1C(=O)[C@H](CC(C)C)NC(=O)[C@@H](N)Cc1ccccc1)[C@H](C)CC)[C@H](C)CC)C(=O)N[C@@H](Cc1ccccc1)C(N)=O [Temporin-PKE-3i] (H-FLPL[dI][dI]GALSSLLPK[dI]F-NH2) | >512 µM | >512 µM | >512 µM | >512 µM | >512 µM | >512 µM | >512 µM | >512 µM | >512 µM | >512 µM | >512 µM | 64 µM | 64 µM (≈ 118 µg/mL) | 64 µM (≈ 118 µg/mL) | 64 µM (≈ 118 µg/mL) | 64 µM (≈ 118 µg/mL) | 256 µM (≈ 471 µg/mL) | >512 µM |  |  | MBC (E. coli (ATCC CRM 8739); read-out: MBC): >512 µM; MIC (E. coli (ATCC CRM 8739); read-out: MIC): >512 µM; MIC (E. coli (ATCC BAA-2340); read-out: MIC): >512 µM
2 | FLPLIIGKLSSLLPKIF-NH2 [Temporin-PKE-2K] |  | 16 µM | 16 µM | 16 µM | 32 µM | 32 µM | 16 µM | 128 µM | 64 µM | 16 µM | >512 µM | 2 µM | 2 µM | 2 µM | 2 µM | 2 µM | >512 µM | 128 µM | 4 µM | 4 µM | MBC (E. coli (ATCC BAA-2340)): 8 µM; MIC (E. coli (ATCC BAA-2340)): 8 µM; MIC ([4]; read-out: MIC): >512 µM
3 | FLPKIIGKLSSLLPKIF-NH2 [Temporin-PKE-3K] |  | 16 µM | 4 µM | 4 µM | 16 µM | 16 µM | 4 µM | 16 µM | 16 µM | 4 µM | 64 µM | 2 µM | 2/2 μM |  | 2 µM | 2 µM | 64 µM | 32 µM | 2 µM | 2 µM | MBC (E. coli (ATCC BAA-2340)): 2 µM; MIC (E. coli (ATCC BAA-2340)): 2 µM; MIC (MRSA (NCTC 12493); read-out: MIC): 2 µM; MIC ([4]; read-out: MIC): 32 µM
4 | FLPKIIGKLSSKLPKIF-NH2 [Temporin-PKE-4K] | 64 µM | 16 µM | 16 µM | 16 µM | 64 µM | 128 µM | 16 µM | 64 µM | 64 µM | 16 µM | 128 µM | 32 µM | 32 µM | 32 µM | 16 µM | 16 µM |  | 256 µM | 4 µM | 4 µM | MIC (E. coli (ATCC BAA-2340); read-out: MIC): 32 µM; MBC [4]: 64 µM; MIC [4]: 64 µM
